Here are results for 2 substances from PMC5884628 (International journal of biological macromolecules, 2016).

Data set [1] deals with wild-type membrane bound F1Fo ATP synthase. As to the kind of experiment: Inhibition of membrane bound F1Fo ATPase activity by venom peptides. The data set is classed as biochemical, Escherichia coli. The conditions noted are these: 60 min preincubation at RT, pH 8.0; Fig. 2.
Data set [2] has as its system wild-type E. coli strain (pBWU13.4/DK8). As to the kind of experiment: Growth of wild-type E. coli in the presence of venom peptides. Type of data set: cell-based, Escherichia coli. The note with it: wild-type in comparison to null strain.
For data set [3], the system named is null E. coli strain (pUC118/DK8). As to the kind of experiment: Growth of null E. coli in the presence of venom peptides. The data set is classed as cell-based, Escherichia coli. The note with it: null strain in comparison to wild-type.
Data set [4] relates to erythrocytes. The note with it: ref [26], [27]; cited from earlier work.
For data set [5], the system named is human pathogenic bacteria; multi-drug resistant bacterial strains. The note with it: broad spectrum of microbes; ref [26], [27]; cited from earlier work.
For data set [6], the system named is Escherichia coli. The note with it: ref [26], [27]; cited from earlier work.
For data set [7], the system named is Pseudomonas aeruginosa. The note with it: ref [26], [27], cited from earlier work.
Data set [8] concerns Staphylococcus aureus. The note with it: ref [26], [27], cited from earlier work.
The subject of data set [9] is P. aeruginosa. The conditions noted are these: rat models; ref [26], [27]; cited from earlier work.
Data set [10] has as its system melanoma cell. The conditions noted are these: ref [31]; cited from earlier work.
The conditions of data set [11]: ref [26], [27]; cited from earlier work.
The test system of data set [12] is burns and acute infections. The note with it: ref [26], [27]; cited from earlier work.
Data set [13] deals with E. coli ATP synthase. The conditions noted are these: ref [18], [19]; cited from earlier work.
The subject of data set [14] is E. coli. The note with it: ref [18], [19]; cited from earlier work.

In the case of KFFRKLKKSVKKRAKEFFKKPRVIGVSIPF [BF-30], the “inhibition of ATP synthase (in words)” value in [1] is “strong inhibition of ATP synthase”. In addition, the “inhibition of wild-type E. coli (in words)” value in data set [2] was “potent inhibition”. In addition, in data set [3], the “inhibition of null E. coli (in words)” value is “partial inhibition”. Besides, the hemolytic activity entry in [4] was “no obvious hemolytic”. Besides, the “antimicrobial activity in comparison to gentamicin, ampicillin, or bacitracin” value in [5] was “stronger antimicrobial activity”. Besides, in data set [6], the “effectiveness against drug-resistant Escherichia coli” value is reported as “effective”. In data set [7] (drug-resistant), the “effectiveness against drug-resistant Pseudomonas aeruginosa” value was “effective”. Besides, in [7], the “time to kill P. aeruginosa” value is given as “less than 120 minutes”. Moreover, the “effectiveness against drug-resistant Staphylococcus aureus” value in data set [8] (drug-resistant) is reported as “effective”. Also, the “time to kill S. aureus” value in data set [8] is on record as “less than 120 minutes”. Besides, in data set [9], the “P. aeruginosa colony formation” value was “significantly reduced”; the “subsequent infection and inflammation” value was “prevented”. For the same substance, the melanoma cell proliferation result in data set [10] is “selectively inhibit melanoma cell proliferation”. The cytotoxic activity entry in [11] is “no obvious hemolytic or cytotoxic activity”. Moreover, in data set [12], the “effectiveness in burns and acute infections” value is reported as “effective”.

With melittin, in data set [13], the “inhibition of E. coli ATP synthase” value is recorded as “potently inhibit”. Also, the E. coli growth entry in data set [14] is “abrogation of E. coli growth”.
